Patent publication US10272075B2, “Method and composition for treating an alpha adrenoceptor-mediated condition” (Vanda Pharmaceuticals, Inc., priority 2007, dated 2019)

What was measured:
rats [1] = details: administered intraduodenally; cited from earlier work
rat alpha1A-adrenoceptor = target: T1, rat alpha1A-adrenoceptor (Rattus norvegicus, UniProt P43140); assay: binding studies, rat alpha1A-adrenoceptor; details: data communicated by Dr. Baroldi, Vanda Pharmaceuticals
T1 sequence (P43140 1-466): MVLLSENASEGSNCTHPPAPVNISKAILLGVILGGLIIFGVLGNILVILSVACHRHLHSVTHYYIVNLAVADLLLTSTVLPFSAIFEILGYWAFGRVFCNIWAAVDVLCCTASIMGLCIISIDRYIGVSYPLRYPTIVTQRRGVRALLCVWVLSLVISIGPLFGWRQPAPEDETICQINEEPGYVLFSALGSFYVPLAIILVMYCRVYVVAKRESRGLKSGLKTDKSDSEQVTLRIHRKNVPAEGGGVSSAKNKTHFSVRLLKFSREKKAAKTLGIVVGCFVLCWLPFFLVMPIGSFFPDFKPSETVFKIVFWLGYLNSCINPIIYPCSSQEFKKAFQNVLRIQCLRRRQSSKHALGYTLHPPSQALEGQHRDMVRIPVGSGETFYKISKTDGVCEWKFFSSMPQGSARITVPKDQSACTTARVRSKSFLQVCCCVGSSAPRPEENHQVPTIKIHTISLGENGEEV
From the text: (§1) The pA2 of 4-[3-[4-(6-fluoro-1,2,-benzisoxazol-3-yl)-1-piperidinyl]propoxy]-3-methoxy-benzoic acid (7.50) is in accordance with the value previously found on the rabbit isolated prostate. […] Importantly, it is recognized that blockade of both alpha1A-and alpha1D-adrenoceptors is necessary for optimal clinical effect on BPH patients (Andersson K E, World J. Urol. 19: 390-96, 2002).

anesthetized rats [2] = assay: PE-induced increase in intraurethral pressure (UP) and arterial blood pressure (BP) in anesthetized rats, oral administration; type: in vivo, rat; details: for UP100% value (dose of PE increasing baseline UP by 100%), statistical significance / effect on BP, from BP10% to BP100%: 45 min; for effect on basal BP levels / effect on basal UP: oral; for effect on basal BP levels: 25 and 45 minutes after administration; for effect on basal UP: measured 25 or 45 minutes later
Method: An experiment was conducted to evaluate the antagonistic effect of 4-[3-[4-(6-fluoro-1,2,-benzisoxazol-3-yl)-1-piperidinyl]propoxy]-3-methoxy-benzoic acid on the PE-induced increase in intraurethral pressure (UP) and arterial blood pressure (BP) in anesthetized rats.

alpha 1 adrenoceptors = assay: receptor affinity/potency profile, alpha 1 adrenoceptors; type: binding
[3] = DMPK studies in rats with [14C]-labelled compound, brain radioactivity; type: in vivo, rat; details: rats treated with [14C] compound
From the text: 4-[3-[4-(6-fluoro-1,2,-benzisoxazol-3-yl)-1-piperidinyl]propoxy]-3-methoxy-benzoic acid appears not to cross the blood-brain barrier. Specifically, in DMPK studies using rats treated with [14C] […] Therefore, 4-[3-[4-(6-fluoro-1,2,-benzisoxazol-3-yl)-1-piperidinyl]propoxy]-3-methoxy-benzoic acid is particularly useful in conditions that are not mediated, to a substantial degree, by receptors in the brain.

alpha1-adrenoceptors [4] = tested on: T2, alpha1-adrenoceptors; assay: phenylephrine (PE)-induced contraction in the prostatic smooth muscle of male rabbits (isolated strips, organ bath); design: species or system rabbit; details: rabbit isolated prostate, vs PE
T2 construct: antagonist potency (pA2) estimated by the Schild plot; other: rabbit isolated prostate, vs PE, 0.1-3 uM, 60 min incubat; other: rabbit isolated prostate, vs PE, single concentration 0.01 μ; pKb; other: rabbit isolated prostate
Method: (§2) It is well established in the literature that the rabbit is a good model for the pharmacology of the lower urinary tract. In particular, a correlation was found between affinities for cloned alpha1a-adrenoceptors and antagonist potency (pKb) values for several alpha1-adrenoceptors antagonists in the rabbit isolated prostate (Martin et al., J. Pharmacol. Expr. Ther. 282: 228-35, 1997). Briefly, following animal sacrifice, transverse preparations of the prostate were suspended vertically in 25 mL glass organ baths under a loading tension of 1 g and placed in an oxygenated, modified Krebs solution (NaCl 114 mM, KCl 4.7 mM, CaCl2 2.5 mM, KH2PO4 1.2 mM, NaHCO3 25 mM, glucose 11.7 mM (pH 7.4, gassed with 95% O2 and 5% CO2 at 37° C.). Propranolol (1 μM), desipramine (0.1 μM), deoxycorticosterone (3 μM) and normetanephrine (1 μM) were added to the Krebs-Henseleit solution in order to block beta-adrenoceptors, neuronal and extraneuronal uptake and catechol-O-methyl transferase, respectively. After 60 min of equilibration, smooth muscle strips were exposed to 30 μM PE to measure their viability. Strips having low contractile responses (<0.5 g) were discarded. Following a 30 min washout period, a first concentration-response curve (CRC) to PE (in the range 0.1 μM-1 mM) was obtained by cumulative additions as half-log unit concentrations increments. Then, tissues were washed for 60 min and incubated for 60 min with the test substance (at four different concentrations) before a second PE CRC was obtained (in the range 0.1 μM-10 mM). Only one concentration for the test substance was tested on each single smooth muscle strip.

alpha1-adrenoceptors [5] = assay: as above; design: species or system rabbit
Method: as §2

[6] = target: T3, cloned human alpha1 D-adrenoceptor (Homo sapiens, UniProt P25100); assay: binding studies, cloned human alpha1D-adrenoceptor; details: data communicated by Dr. Baroldi, Vanda Pharmaceuticals
T3 construct: expressed in transfected cells
T3 sequence (P25100 1-572): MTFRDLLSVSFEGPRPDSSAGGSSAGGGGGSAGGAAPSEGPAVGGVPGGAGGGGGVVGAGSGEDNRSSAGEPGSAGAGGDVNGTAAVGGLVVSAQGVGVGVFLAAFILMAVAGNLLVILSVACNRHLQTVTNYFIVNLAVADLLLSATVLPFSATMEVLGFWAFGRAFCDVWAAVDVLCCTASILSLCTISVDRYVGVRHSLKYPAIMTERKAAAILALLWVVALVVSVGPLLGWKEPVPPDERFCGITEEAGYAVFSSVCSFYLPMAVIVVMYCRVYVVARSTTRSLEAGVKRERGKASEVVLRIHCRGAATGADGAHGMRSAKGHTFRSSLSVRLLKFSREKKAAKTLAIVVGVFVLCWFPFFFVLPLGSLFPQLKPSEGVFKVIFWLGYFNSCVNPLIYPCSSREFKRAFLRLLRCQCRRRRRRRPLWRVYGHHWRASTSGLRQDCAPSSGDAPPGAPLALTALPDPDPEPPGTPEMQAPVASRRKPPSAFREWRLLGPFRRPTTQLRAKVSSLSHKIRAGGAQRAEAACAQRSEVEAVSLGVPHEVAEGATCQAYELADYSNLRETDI
From the text: as §1

serotonin 5HT2A receptor = serotonin 5HT2A receptor (Homo sapiens, UniProt P28223); assay: receptor affinity/potency profile, serotonin 5HT2A receptor; type: binding
[7] = tested on: human alpha1-adrenoceptors expressed in the prostatic adenoma; assay: norepinephrine (NE)-induced contraction in prostatic adenoma from BPH patients (isolated strips, organ bath); details: for effect on pEC50 of the second CRC to NE: 60 min incubation
Method: Briefly, human prostatic adenoma was obtained from 6 patients (mean age 71±5 years) undergoing transvesical adenomectomy of the prostate because of BPH. Prostatic strips were mounted in glass organ baths containing a modified Krebs-Henseleit solution (NaCl 114 mM, KCl 4.7 mM, CaCl2 2.5 mM, KH2PO4 1.2 mM, NaHCO3 25 mM, glucose 11.7 mM, ascorbic acid 1.1 mM (pH 7.4, gassed with 95% O2 and 5% CO2 at 37° C.) under 1.5 g tension. […] Strips having a contractile response <0.3 g were discarded. After washout and 60 min of re-equilibration to re-establish baseline tension, a first cumulative concentration-response curve to NE (in the range 0.1 μM-1 mM) was constructed until a plateau of contraction was reached. […] Only one concentration of antagonist was tested in a single strip. […] The quantity of DMSO in the organ baths was equal to 0.1%.

[8] = tested on: dopamine, histamine and serotonin receptors (other than 5HT2A); assay: receptor affinity/potency profile, dopamine, histamine and serotonin receptors; type: binding
anesthetized rats [9] = assay: PE-induced increase in intra-urethral pressure (UP) in anesthetized rats, intravenous administration; type: in vivo, rat; details: for effect on agonist (PE) effect on UP: PE dose range 10-300 ug/kg
Method: Briefly, catheters were inserted into the femoral vein of anesthetized male rats for drug administration and into the urethra through the bladder wall for measuring urethral pressure (UP). […] The different doses of PE (between 3 and 300 ug/kg in controls and up to 3000 ug/kg in treated animals) were administered intravenously under a volume of 1 mL/kg as a bolus with a 3 minute interval between each dose.

rats [10] = assay: bladder outlet obstruction-induced bladder dysfunction in rats, 1-week treatment; type: in vivo, rat; details: for effect on bladder hypertrophy secondary to outlet obstruction / effect on cystometric parameters: 1-week treatment; for effect on cystometric parameters: bladder outlet obstruction rats
Method: In another experiment, the effect of a 1-week treatment with 4-[3-[4-(6-fluoro-1,2,-benzisoxazol-3-yl)-1-piperidinyl]propoxy]-3-methoxy-benzoic acid, tamulosin, and a common vehicle on bladder outlet obstruction-induced bladder dysfunction in rats was evaluated. […] However, this latter effect was exclusively observed at the lowest dose tested (1 mg/kg/day).

alpha1-adrenoceptors [11] = tested on: T2, alpha1-adrenoceptors; details: rabbit isolated prostate; cited from earlier work
conscious rats = details: i.v.; cited from earlier work
[12] = tested on: human isolated prostatic adenoma; details: human isolated prostatic adenoma obtained from BPH patients; cited from earlier work

Chain of serotonin 5HT2A receptor (P28223 whole entry): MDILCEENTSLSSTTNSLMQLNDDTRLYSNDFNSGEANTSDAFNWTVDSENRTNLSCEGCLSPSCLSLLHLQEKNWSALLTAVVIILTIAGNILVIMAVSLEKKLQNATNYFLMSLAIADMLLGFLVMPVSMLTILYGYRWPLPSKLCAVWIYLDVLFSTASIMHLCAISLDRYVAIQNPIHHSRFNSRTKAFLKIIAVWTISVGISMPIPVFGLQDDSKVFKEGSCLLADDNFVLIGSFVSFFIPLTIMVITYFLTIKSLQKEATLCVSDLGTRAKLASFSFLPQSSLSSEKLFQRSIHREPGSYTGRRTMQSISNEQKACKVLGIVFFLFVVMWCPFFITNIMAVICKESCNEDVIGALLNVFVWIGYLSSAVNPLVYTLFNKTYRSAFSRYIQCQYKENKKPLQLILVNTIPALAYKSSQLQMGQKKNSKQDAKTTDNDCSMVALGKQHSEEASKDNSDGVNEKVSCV

C[C@H](Cc1cc2c(c(C(N)=O)c1)N(CCCO)CC2)NCCOc1ccccc1OCC(F)(F)F [silodosin]
potency relative to tamsulosin (times less potent) on UP (rats [1]): 2.8 times

COc1cc(C(=O)O)ccc1OCCCN1CCC(c2noc3cc(F)ccc23)CC1 [4-[3-[4-(6-fluoro-1,2,-benzisoxazol-3-yl)-1-piperidinyl]propoxy]-3-methoxy-benzoic acid]
IC50 (rat alpha1A-adrenoceptor): 11.5 nM
effect on PE-induced increase of basal UP (anesthetized rats [2]; 0.5 mg/kg p.o.): ineffective
effect on PE-induced increase of basal UP (anesthetized rats [2]; 1.5 mg/kg p.o.): slight effect
UP100% value (dose of PE increasing baseline UP by 100%), statistical significance (anesthetized rats [2]; 1.5 mg/kg p.o.): reached the level of statistical significance
effect on BP, from BP10% to BP100% (anesthetized rats [2]; 1.5 mg/kg p.o.): significant
effect on PE-induced increase of basal UP (anesthetized rats [2]; 4.5 mg/kg p.o.): slight effect
UP100% value (dose of PE increasing baseline UP by 100%), statistical significance (anesthetized rats [2]; 4.5 mg/kg p.o.): not
effect on BP, from BP10% to BP100% (anesthetized rats [2]; 4.5 mg/kg p.o.): no effect
potency relative to tamsulosin (times less potent) on both UP and BP (anesthetized rats [2]; oral route, 1.5 mg/kg at 45 min equipotent with 0.3 mg/kg tamsulosin): about 5 times
effect on basal BP levels (anesthetized rats [2]): significantly decreased
effect on basal UP (anesthetized rats [2]): no effect
affinity/potency for alpha 1 adrenoceptors compared with alpha 2 adrenoreceptors (alpha 1 adrenoceptors): slightly greater affinity/potency
affinity and potency among receptors (alpha 1 adrenoceptors; alpha 1 adrenoceptors): greatest affinity and is most potent
radioactivity concentrations in the brain (blood-brain barrier crossing) [3]: none of the animals had measurable radioactivity concentrations in the brain
antagonist potency (pA2) estimated by the Schild plot (alpha1-adrenoceptors [4]; 0.1-3 uM, 60 min incubation): 7.47
effect on Emax of PE concentration-response curve (alpha1-adrenoceptors [5]): unaffected
effect on PE-induced contractions (alpha1-adrenoceptors [5]; n=6 for each dose, 0.1-3 uM): concentration-dependently antagonized
IC50 [6]: 17.8 nM
affinity and potency among receptors (serotonin 5HT2A receptor): greatest affinity and is most potent
effect on Emax of NE concentration-response curve [7]: no effect
effect on pEC50 of the second CRC to NE [7]: concentration-dependent shift
potency relative to tamsulosin (times less potent) ([7]; human alpha1-adrenoceptors in prostatic adenoma): approximately 100 times
pA2 estimated by the Schild Plot ([7]; human prostatic adenoma, vs NE, dose-ratios corrected by solvent group): 7.50
activity with respect to the dopamine, histamine and serotonin receptors (other than 5HT2A) [8]: very weak if any activity
effect on delta UP (over baseline) induced by PE (anesthetized rats [9]; 10 ug/kg i.v., PE 100 ug/kg): statistically significant inhibitory effect
effect on delta UP (over baseline) induced by PE (anesthetized rats [9]; 33.3 ug/kg i.v., PE 30-100 and 150 ug/kg): statistically significant inhibitory effect
dose response curve to PE (urethral pressure) (anesthetized rats [9]; 10, 33.3 and 100 ug/kg i.v.): dose-dependently shifted to the right
potency relative to tamsulosin (times less potent) (anesthetized rats [9]; intravenous route, anesthetized rats): approximately 10 times
effect on agonist (PE) effect on UP (anesthetized rats [9]; test substance 100 ug/kg i.v.): statistically significant decrease
effect on bladder hypertrophy secondary to outlet obstruction (rats [10]): devoid of effect
effect on cystometric parameters (rats [10]): devoid of significant effect
effect on amplitude of unstable contractions (rats [10]; exclusively at the lowest dose tested (1 mg/kg/day)): significantly decreased

CCOc1ccccc1OCCN[C@H](C)Cc1ccc(OC)c(S(N)(=O)=O)c1 [tamsulosin, reference compound]
pKb (alpha1-adrenoceptors [11]): 9.74
effect on basal BP levels (anesthetized rats [2]): significantly decreased
effect on basal UP (anesthetized rats [2]): no effect
pA2 calculated from the dose-ratio of pEC50 values (alpha1-adrenoceptors [4]; single concentration 0.01 μM): 10.21
effect on Emax of PE concentration-response curve (alpha1-adrenoceptors [5]): unaffected
potency of tamsulosin relative to the test substance (times more potent) (alpha1-adrenoceptors [5]; rabbit preparation, based on similar PE pEC50 values): 300 times
effect on Emax of NE concentration-response curve [7]: no effect
effect on pEC50 of the second CRC to NE [7]: induced a shift
effect on agonist (PE) effect on UP (anesthetized rats [9]; tamsulosin 10 ug/kg): statistically significant decrease
effect on bladder hypertrophy secondary to outlet obstruction (rats [10]): devoid of effect
effect on cystometric parameters (rats [10]): completely ineffective

COc1cc2nc(N(C)CCCNC(=O)C3CCCO3)nc(N)c2cc1OC (centres unmarked) [alfuzosin]
pKb (alpha1-adrenoceptors [11]): 7.25
potency relative to tamsulosin (fold less potent) in decreasing basal urethral pressure (conscious rats): 10 fold
pKb [12]: 7.78
